Values quoted from earlier work as cited in article PMC8510358, “Common Shortcomings in Study on Radiopharmaceutical Design Research: A Case Study of ^99mTc-Labelled Methotrexate” (Molecules, 2021).

System: folate receptors
Parameters: method as in PMID 23851396
Conditions: in comparison to folic acid (FA); ref [3]

affinity to folate receptors: noticeably lower
Structure (SMILES): CN(Cc1cnc2nc(N)nc(N)c2n1)c1ccc(C(=O)N[C@@H](CCC(=O)O)C(=O)O)cc1 [MTX, Methotrexate]
